Test results from ChEMBL document CHEMBL1255199, “Endochin optimization: structure-activity and structure-property relationship studies of 3-substituted 2-methyl-4(1H)-quinolones with antimalarial activity” (J Med Chem, 2010).
In brackets after ≈: the same amount, converted by molar mass.

What was measured:
[1] = in vitro; details: mouse, J774 cells
Description: Cytotoxicity index, ratio of EC50 for mice (Mus musculus) J774 cells to EC50 for chloroquine, mefloquine, pyrimethamine and atovaquone-resistant Plasmodium falciparum TM90-C2B

[2] = Half life in human liver microsomes; assay type: ADME, Microsome
[3] = Passive transcellular permeability of the compound at pH 7.4 by PAMPA; assay type: ADME; details: read-out: permeability
[4] = Passive transcellular permeability of the compound at pH 4 by PAMPA; assay type: ADME; details: for Papp: read-out: permeability
[5] = tested on: Plasmodium falciparum; assay: Antimalarial activity against chloroquine, mefloquine, pyrimethamine and atovaquone-resistant Plasmodium falciparum TM90-C2B infected in human A+ erythrocytes after 72 hrs by SYBR Green I assay; assay type: functional, organism-based
[6] = physchem; details: aqueous, pH 7.4
Description: Aqueous solubility of the compound at pH 7.4 by HPLC analysis

[7] = Lipophilicity, log D of the compound at pH 7.4; details: buffer
[8] = tested on: Plasmodium falciparum; assay: Antimalarial activity against chloroquine and pyrimethamine-resistant Plasmodium falciparum W2 infected in human A+ erythrocytes after 72 hrs by SYBR Green I assay; assay type: functional, organism-based; details: W2, 72 h
[9] = tested on: J774; assay: Cytotoxicity against mouse J774 cells; assay type: cell-based
[10] = Half life in mouse liver microsomes; assay type: ADME, Microsome

SMILES | selectivity ratio [1] | half-life [2] [min] | Papp [3] [×10⁻⁶ cm/s] | permeability [4] [×10⁻⁶ cm/s] | EC50 [5] [µM] | solubility [6] [µM] | logD [7] | EC50 [8] [µM] | EC50 [9] [µM] | half-life [10] [min] | Papp [4] [×10⁻⁶ cm/s]
CCCCCCCc1c(C)nc2cc(OC)ccc2c1O | > 747 | 10.2 | 679 | 1019.9 | 0.0466 | 2 (≈ 0.575 µg/mL) | 3.69 | 0.00859 | > 34.8 | 7.9 | –
Cc1[nH]c2c(Cl)cc(Cl)cc2c(=O)c1-c1ccccc1 | > 4 | – | 232 | – | > 8.22 | < 2 | 3.32 | > 8.22 | > 32.9 | – | 162
COc1cc2[nH]c(C)c(-c3ccccc3)c(=O)c2cc1F | > 425 | – | 124 | – | 0.083 | 5 (≈ 1.42 µg/mL) | 1.72 | 0.167 | > 35.3 | – | 192
Cc1[nH]c2ccc(Cl)cc2c(=O)c1Cc1ccccc1 | > 10.7 | – | 415 | – | 3.28 | < 2 | 2.79 | 2.47 | > 35.2 | – | 422
Cc1[nH]c2ccccc2c(=O)c1/C=C/C(=O)OC(C)(C)C | > 4.8 | – | 124 | – | > 8.35 | > 20 | 2.34 | > 8.35 | > 40 | – | 105
Cc1[nH]c2ccccc2c(=O)c1/C=C/c1ccc(O)cc1 | > 4 | – | 17 | – | > 9.02 | > 20 | 1.77 | > 9.01 | > 36.1 | – | 10.7
COc1ccc2c(=O)c(Cc3ccccc3)c(C)[nH]c2c1 | > 25.9 | – | 240 | – | 1.38 | 5 (≈ 1.4 µg/mL) | 2.52 | 0.733 | > 35.8 | – | 200
COc1cc2[nH]c(C)c(C(C)C)c(=O)c2cc1Cl | 112 | – | 187 | – | 0.194 | > 20 | 2.84 | 0.112 | 21.7 | – | 281
Cc1[nH]c2c(Cl)cccc2c(=O)c1-c1ccccc1 | > 4 | – | 165 | – | > 9.27 | 5 (≈ 1.35 µg/mL) | 2.6 | > 9.27 | > 37.1 | – | 158
COc1cc2[nH]c(C)c(-c3ccccc3)c(=O)c2cc1Cl | > 2170 | 128 | 48.3 | – | 0.0153 | 5 (≈ 1.5 µg/mL) | 1.65 | 0.0262 | > 33.4 | 21.3 | 105
Cc1[nH]c2cccc(Cl)c2c(=O)c1-c1ccccc1 | > 7.8 | – | 99.6 | – | 4.74 | 10 (≈ 2.7 µg/mL) | 1.88 | 5.06 | > 37.1 | – | 91
COc1cc2[nH]c(C)c(-c3ccccc3)c(=O)c2cc1Br | > 1160 | – | 330 | – | 0.025 | < 2 | 2.2 | 0.0794 | > 29.1 | – | 306
CCCCC#Cc1c(C)[nH]c2ccc(F)cc2c1=O | > 4 | – | 495 | – | > 9.64 | 2 (≈ 0.515 µg/mL) | 5.64 | > 9.64 | > 38.6 | – | 314
COc1cccc2[nH]c(C)c(-c3ccccc3)c(=O)c12 | > 7.4 | – | 333 | – | 5.08 | > 20 | 1.63 | 8.15 | > 37.7 | – | 24.4
COc1cc2[nH]c(C)c(C)c(=O)c2cc1Cl | 449 | – | 59.2 | – | 0.0273 | 5 (≈ 1.19 µg/mL) | 1.86 | 0.0566 | 12.2 | – | 37
COc1cc2[nH]c(C)c(/C=C/C(=O)OC(C)(C)C)c(=O)c2cc1Cl | > 533 | 60.3 | 261 | – | 0.0536 | 5 (≈ 1.75 µg/mL) | 1.81 | 0.0617 | > 28.6 | 43.9 | 249
COc1cccc2[nH]c(C)c(Cc3ccccc3)c(=O)c12 | 5.33 | – | 158 | – | 2.11 | > 20 | 2.11 | 6.44 | 11.2 | – | 69.8
COc1ccc2[nH]c(C)c(Cc3ccccc3)c(=O)c2c1 | > 1 | – | 188 | – | 23.7 | 2 (≈ 0.559 µg/mL) | 2.53 | > 8.95 | > 23.7 | – | 167
Cc1[nH]c2c(Cl)cccc2c(=O)c1Cc1ccccc1 | > 4 | – | 412 | – | > 8.81 | 5 (≈ 1.42 µg/mL) | 2.78 | > 8.81 | > 35.2 | – | 430
Cc1[nH]c2ccccc2c(=O)c1Br | > 542 | – | 13.6 | – | 0.0776 | > 20 | 1.67 | 0.453 | > 42 | – | 8.19
CCc1c(C)[nH]c2cc(OC)c(Cl)cc2c1=O | 689 | 33.8 | 57.3 | – | 0.0276 | 10 (≈ 2.52 µg/mL) | 2.43 | 0.0482 | 19 | 28.4 | 96.4
Cc1[nH]c2ccc(Cl)cc2c(=O)c1Br | 172 | – | 87.7 | – | 0.126 | 5 (≈ 1.36 µg/mL) | 2.02 | 0.845 | 21.7 | – | 84.5
COc1cc2[nH]c(C)c(C3CCCCC3)c(=O)c2cc1Cl | > 82.3 | – | 630 | 1235.85 | 0.397 | 5 (≈ 1.53 µg/mL) | 3.04 | 0.237 | > 32.7 | – | –
Cc1[nH]c2ccccc2c(=O)c1/C=C/c1cccc([N+](=O)[O-])c1 | > 21.9 | – | 602 | – | 1.49 | < 2 | 2.95 | 4.6 | > 32.6 | – | 508
CCc1c(C)[nH]c2cc(OC)c(F)cc2c1=O | 58.3 | – | 19.1 | 22.9 | 0.161 | < 2 | 1.2 | 0.368 | 9.4 | – | –
Cc1[nH]c2cc(Cl)cc(Cl)c2c(=O)c1-c1ccccc1 | > 9.5 | – | 320 | – | 3.44 | 5 (≈ 1.52 µg/mL) | 2.72 | 2.15 | > 32.9 | – | 460
Cc1[nH]c2cc(Cl)ccc2c(=O)c1Cc1ccccc1 | > 2.2 | – | 392 | – | 15.7 | < 2 | 2.69 | 2.17 | > 35.2 | – | 341
CCc1c(C)[nH]c2cc(OC)c(Br)cc2c1=O | > 933 | – | 75.1 | – | 0.0363 | 2 (≈ 0.592 µg/mL) | 1.7 | 0.179 | > 33.9 | – | 81.9
COc1cc2[nH]c(C)cc(=O)c2cc1Cl | > 24.1 | 161 | 25.2 | – | 1.86 | 2 (≈ 0.447 µg/mL) | 1.95 | 3.18 | > 44.7 | 62.4 | 11.9
